Measurements taken from US6117645A, “Human LH-RH receptor expression cells and use thereof” (Takeda Chemical Industries, Ltd., priority 1994, dated 2000).

Target: T1, human LH-RH receptor (Homo sapiens, UniProt P30968)
T1 construct: cell membrane fraction or whole cells
T1 sequence (P30968 1-328): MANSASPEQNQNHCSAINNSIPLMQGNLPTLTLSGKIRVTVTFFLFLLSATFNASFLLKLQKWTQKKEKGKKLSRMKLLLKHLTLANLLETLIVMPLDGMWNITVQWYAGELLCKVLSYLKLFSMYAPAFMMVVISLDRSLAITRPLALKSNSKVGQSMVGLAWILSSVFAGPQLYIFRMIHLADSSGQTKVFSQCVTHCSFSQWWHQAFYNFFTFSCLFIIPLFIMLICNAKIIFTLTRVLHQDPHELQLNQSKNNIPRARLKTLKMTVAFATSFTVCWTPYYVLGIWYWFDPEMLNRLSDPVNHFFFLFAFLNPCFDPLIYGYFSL
Experiment: [125I]-leuprorelin binding inhibition, CHO cell membrane fraction
Conditions: 2 μl of 2 mM compound in 60% DMSO added to 188 μl of 200 μg/ml membrane fraction with 10 μl of 3.6 nM [125I]-leuprorelin; 25° C., 60 minutes
Experimental: The human LH-RH receptor expression cells (10^9 cells) obtained in Example 2 were suspended in phosphate buffered saline containing 5 mM EDTA (PBS-EDTA), and centrifuged at 100×g for 5 minutes. To cell pellets, 10 ml of a cell homogenating buffer (10 mM NaHCO3, 5 mM EDTA, pH 7.5) was added, followed by homogenization with a Polytron homogenizer. After centrifugation at 400×g for 15 minutes, the supernatant was placed in an ultracentrifugal tube, and centrifuged at 100,000×g for 1 hour to obtain a cell membrane fraction precipitate. This precipitate was suspended in 2 ml of an assay buffer, and centrifuged at 100,000×g for 1 hour. The cell membrane fraction recovered as a precipitate was suspended in 20 ml of the assay buffer again. The suspension was dispensed and stored at -80° C. It was defrosted at every time of use. […]
Using the human LH-RH receptor expression CHO cell membrane fraction, reaction was conducted at 25° C. for 60 minutes. […] After the filtration, the radioactivity of [^125 I]-leuprorelin left on the filter was measured with a gamma-ray counter.
The binding inhibition rate of each sample to be tested was determined according to the following equation: [formula] wherein SB represents the radioactivity when the compound is added, TB represents the maximum binding radioactivity, and NSB represents the non-specific binding radioactivity.

CCOC(=O)c1cn(Cc2ccccc2OC)c2sc(-c3ccc(OC)cc3)c(C)c2c1=O [Reference Example 9] gave an inhibition at 2000 µM (stock) of 67%.
